From ChEMBL document CHEMBL5338773, “First-in-Class Selective Inhibitors of the Lysine Acetyltransferase KAT8” (J Med Chem, 2023)
The source made the active and inactive calls. No cut-off for these calls is given here.

Columns and labels:
[1] = molecular target: T1, Protein deacetylase HDAC6 (Homo sapiens) (UniProt Q9UBN7); assay: Inhibition of human recombinant KDAC6 using Boc-Lys-(Ac)-AMC as substrate at 50 to 100 uM incubated for 45 mins by fluorescence microplate reader analysis; conditions: dose 50-100 µM
T1 sequence (whole entry): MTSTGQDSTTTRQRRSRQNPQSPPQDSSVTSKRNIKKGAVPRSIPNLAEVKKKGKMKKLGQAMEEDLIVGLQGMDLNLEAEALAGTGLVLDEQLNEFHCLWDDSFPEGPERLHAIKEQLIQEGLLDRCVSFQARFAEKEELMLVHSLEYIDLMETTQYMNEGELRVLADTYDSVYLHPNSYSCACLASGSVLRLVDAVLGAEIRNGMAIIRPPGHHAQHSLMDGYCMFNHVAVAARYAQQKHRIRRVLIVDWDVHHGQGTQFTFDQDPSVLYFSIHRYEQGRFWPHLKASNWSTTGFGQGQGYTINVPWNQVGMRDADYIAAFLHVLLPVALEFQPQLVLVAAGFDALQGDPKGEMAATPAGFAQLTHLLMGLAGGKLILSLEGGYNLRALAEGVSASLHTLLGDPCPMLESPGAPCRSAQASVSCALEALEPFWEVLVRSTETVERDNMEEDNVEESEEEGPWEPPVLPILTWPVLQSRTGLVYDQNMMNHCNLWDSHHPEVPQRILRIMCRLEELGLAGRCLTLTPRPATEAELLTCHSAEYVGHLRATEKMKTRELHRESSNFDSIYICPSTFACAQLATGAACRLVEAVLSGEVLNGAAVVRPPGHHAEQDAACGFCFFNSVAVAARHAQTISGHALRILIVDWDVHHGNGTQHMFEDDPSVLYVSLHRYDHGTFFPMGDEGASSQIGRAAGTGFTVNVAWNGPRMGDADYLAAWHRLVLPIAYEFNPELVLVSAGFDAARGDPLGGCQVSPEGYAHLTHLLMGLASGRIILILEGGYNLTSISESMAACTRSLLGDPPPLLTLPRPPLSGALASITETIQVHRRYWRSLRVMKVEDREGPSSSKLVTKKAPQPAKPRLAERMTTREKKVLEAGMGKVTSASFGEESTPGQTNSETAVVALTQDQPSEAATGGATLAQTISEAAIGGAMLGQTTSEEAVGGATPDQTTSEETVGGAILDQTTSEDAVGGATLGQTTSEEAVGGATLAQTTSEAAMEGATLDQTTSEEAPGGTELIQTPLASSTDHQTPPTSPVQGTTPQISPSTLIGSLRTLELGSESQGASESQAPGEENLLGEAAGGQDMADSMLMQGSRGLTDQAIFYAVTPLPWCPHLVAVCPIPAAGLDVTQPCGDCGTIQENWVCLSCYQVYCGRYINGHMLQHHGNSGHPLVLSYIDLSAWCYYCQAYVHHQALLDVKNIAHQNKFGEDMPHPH

[2] = Cytotoxicity against human Intestinal epithelial cells assessed as inhibition of cell viability at 25 to 200 uM incubated for 72 hrs by MTT assay; type: toxicity, cell-based; conditions: dose 25-200 µM
[3] = molecular target: Histone deacetylase 2 (Homo sapiens) (UniProt Q92769); assay: Inhibition of human recombinant KDAC2 using Boc-Lys-(Ac)-AMC as substrate at 50 to 100 uM incubated for 45 mins by fluorescence microplate reader analysis; conditions: dose 50-100 µM
[4] = Thiol reactivity of compound at pH 7.5 buffer at 0.5 mM and measured upto 24 hrs in presence of DTT and BME by HPLC analysis; type: physicochemical; conditions: pH 7.5, 24 h, 500 µM
[5] = molecular target: Histone deacetylase 3 (Homo sapiens) (UniProt O15379); assay: Inhibition of human recombinant KDAC3 using Boc-Lys-(Ac)-AMC as substrate at 50 to 100 uM incubated for 45 mins by fluorescence microplate reader analysis; conditions: dose 50-100 µM
[6] = molecular target: T2, Histone acetyltransferase KAT8 (Homo sapiens) (UniProt Q9H7Z6); assay: Binding affinity to KAT8 in human HT-29 cells assessed as stabilization of enzyme against thermal induced aggregation at 59 degreeC at 100 nM incubated for 4 hrs by Western blot analysis; type: cell-based
T2 sequence (whole entry): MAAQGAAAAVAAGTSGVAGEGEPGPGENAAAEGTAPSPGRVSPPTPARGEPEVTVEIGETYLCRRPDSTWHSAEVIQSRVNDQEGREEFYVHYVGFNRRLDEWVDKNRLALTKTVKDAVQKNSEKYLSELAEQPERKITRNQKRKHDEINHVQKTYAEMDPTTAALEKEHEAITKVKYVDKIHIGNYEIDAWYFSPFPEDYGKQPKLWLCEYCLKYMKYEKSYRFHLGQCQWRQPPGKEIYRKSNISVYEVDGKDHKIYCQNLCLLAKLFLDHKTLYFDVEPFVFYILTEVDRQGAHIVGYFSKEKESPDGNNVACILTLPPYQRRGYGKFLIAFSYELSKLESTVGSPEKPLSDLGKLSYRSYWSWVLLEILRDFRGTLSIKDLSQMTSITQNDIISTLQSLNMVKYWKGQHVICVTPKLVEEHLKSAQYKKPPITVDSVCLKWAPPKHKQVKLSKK

HeLa [7] = assay: Effect on cell cycle progression in human HeLa cells assessed as changes in cell cycle stages at 50 to 100 uM incubated for 72 hrs by PI-staining based flow cytometry; type: functional; conditions: dose 50-100 µM
HT-29 = assay: Induction of cell cycle arrest in human HT-29 cells assessed as increase in number of cells at sub-G1 phase with DNA hypodiploid at 100 uM incubated for 72 hrs by PI-staining based flow cytometry (Rvb=2%); type: functional
HCT-116 [8] = assay: Antiproliferative activity against human HCT-116 cells assessed as cell proliferation inhibition at 10 to 100 uM incubated for 72 hrs by MTT assay; type: functional, cell-based; conditions: dose 10-100 µM
[9] = Cytotoxicity against human primary lung fibroblast assessed as inhibition of cell viability at 25 to 200 uM incubated for 72 hrs by MTT assay; type: toxicity, cell-based; conditions: dose 25-200 µM
HCT-116 [10] = assay: Induction of apoptosis in human HCT-116 cells assessed as increase in apoptotic cells at 100 uM incubated for 72 hrs in presence of chloroquine by Annexin V-FITC staining based flow cytometry; type: functional, cell-based
HeLa [11] = assay: Induction of cell cycle arrest in human HeLa cells assessed as increase in number of cells at sub-G1 phase with DNA hypodiploid at 100 uM incubated for 72 hrs by PI-staining based flow cytometry (Rvb=2%); type: functional
[12] = molecular target: Histone acetyltransferase KAT2A (Homo sapiens) (UniProt Q92830); assay: Inhibition of recombinant human KAT2A (323 to 837 residues) using histone H3 peptide and [3H]-acetyl-coA as substrates at 200 uM incubated for 1 hrs by liquid scintillation counter analysis
NCI-H1299 [13] = assay: Induction of autophagy in human NCI-H1299 cells stably expressing EGFP-LC3 assessed as increase in p62 expression level at 10 to 100 uM incubated for 48 hrs by Western blot analysis; type: functional, cell-based; conditions: dose 10-100 µM
NCI-H1299 [14] = assay: Induction of autophagy in human NCI-H1299 cells stably expressing EGFP-LC3 assessed as increase in autophagosome formation by measuring fluorescence spots at 10 to 100 uM incubated for 48 hrs by Fluorescence microscopy; type: functional, cell-based; conditions: dose 10-100 µM

Sequence of Histone deacetylase 3 (Homo sapiens) (O15379 whole entry): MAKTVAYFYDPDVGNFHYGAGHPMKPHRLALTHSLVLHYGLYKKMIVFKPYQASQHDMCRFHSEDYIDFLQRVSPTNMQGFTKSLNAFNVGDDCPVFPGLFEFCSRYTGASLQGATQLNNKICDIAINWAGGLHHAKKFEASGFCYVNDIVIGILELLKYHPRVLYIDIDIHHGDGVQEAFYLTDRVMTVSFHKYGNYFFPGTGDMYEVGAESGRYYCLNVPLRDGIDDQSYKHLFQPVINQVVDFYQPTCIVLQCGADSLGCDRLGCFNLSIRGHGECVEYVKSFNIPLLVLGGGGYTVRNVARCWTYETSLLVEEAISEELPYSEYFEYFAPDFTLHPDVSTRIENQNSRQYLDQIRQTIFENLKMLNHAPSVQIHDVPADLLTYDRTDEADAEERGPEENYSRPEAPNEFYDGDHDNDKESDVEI
Sequence of Histone acetyltransferase KAT2A (Homo sapiens) (Q92830 2-837 limits assumed): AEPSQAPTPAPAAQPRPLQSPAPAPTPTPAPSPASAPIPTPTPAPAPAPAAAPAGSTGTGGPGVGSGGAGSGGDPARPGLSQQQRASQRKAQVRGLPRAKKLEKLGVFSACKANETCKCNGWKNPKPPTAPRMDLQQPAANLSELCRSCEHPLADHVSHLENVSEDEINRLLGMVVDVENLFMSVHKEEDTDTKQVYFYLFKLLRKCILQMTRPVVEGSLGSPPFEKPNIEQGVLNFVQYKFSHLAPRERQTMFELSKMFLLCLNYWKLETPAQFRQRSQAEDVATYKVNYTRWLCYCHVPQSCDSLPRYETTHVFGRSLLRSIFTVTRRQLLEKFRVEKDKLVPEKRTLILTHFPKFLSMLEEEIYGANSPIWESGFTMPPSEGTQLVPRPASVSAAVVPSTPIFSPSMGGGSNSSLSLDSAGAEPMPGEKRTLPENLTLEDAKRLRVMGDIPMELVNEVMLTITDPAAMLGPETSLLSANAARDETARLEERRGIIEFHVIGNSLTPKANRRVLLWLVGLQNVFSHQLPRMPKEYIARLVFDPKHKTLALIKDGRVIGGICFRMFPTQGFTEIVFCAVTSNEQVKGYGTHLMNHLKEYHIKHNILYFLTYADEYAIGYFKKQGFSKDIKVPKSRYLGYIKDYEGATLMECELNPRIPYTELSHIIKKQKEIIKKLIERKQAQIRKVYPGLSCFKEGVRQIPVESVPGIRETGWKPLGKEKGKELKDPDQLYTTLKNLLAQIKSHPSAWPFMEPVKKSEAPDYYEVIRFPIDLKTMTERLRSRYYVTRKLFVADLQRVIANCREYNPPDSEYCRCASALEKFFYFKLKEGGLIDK
Sequence of Histone deacetylase 2 (Homo sapiens) (Q92769 whole entry): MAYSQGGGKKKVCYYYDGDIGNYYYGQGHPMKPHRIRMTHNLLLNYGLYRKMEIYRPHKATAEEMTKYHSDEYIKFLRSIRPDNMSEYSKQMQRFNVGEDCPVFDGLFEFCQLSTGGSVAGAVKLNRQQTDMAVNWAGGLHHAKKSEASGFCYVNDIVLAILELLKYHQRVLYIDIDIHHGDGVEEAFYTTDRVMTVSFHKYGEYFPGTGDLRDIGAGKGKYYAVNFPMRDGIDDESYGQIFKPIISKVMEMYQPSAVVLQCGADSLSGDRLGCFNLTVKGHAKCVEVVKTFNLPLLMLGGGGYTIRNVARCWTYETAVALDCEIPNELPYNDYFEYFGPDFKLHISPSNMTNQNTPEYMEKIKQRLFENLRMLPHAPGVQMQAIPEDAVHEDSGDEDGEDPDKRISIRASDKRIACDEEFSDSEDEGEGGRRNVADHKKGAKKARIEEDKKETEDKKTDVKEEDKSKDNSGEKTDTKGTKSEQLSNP

## O=C(O)c1ccc(N2N=C(c3ccccc3)/C(=C/c3ccc[nH]3)C2=O)cc1
[1]
  inhibition: inactive
[2]
  Activity: Non-Toxic
[3]
  inhibition: inactive
[4]
  Drug metabolism: Not Active
[5]
  inhibition: inactive
[6]
  Activity: Active
HeLa [7]
  Activity: inactive
HT-29
  Activity: 14%
HCT-116 [8]
  Activity: Dose-Dependent Effect
[9]
  Activity: Non-Toxic
HCT-116 [10]
  Activity: Active
HeLa [11]
  Activity: 4%
[12]
  inhibition: inactive
NCI-H1299 [13]
  Activity: Active
NCI-H1299 [14]
  Activity: Active

## CC1=NN(c2ccc(C(=O)O)cc2)C(=O)/C1=C\c1ccc[nH]1
[1]
  inhibition: inactive
[2]
  Activity: Non-Toxic
[3]
  inhibition: inactive
[4]
  Drug metabolism: Not Active
[5]
  inhibition: inactive
[6]
  Activity: Active
HeLa [7]
  Activity: inactive
HT-29
  Activity: 15%
HCT-116 [8]
  Activity: Dose-Dependent Effect
[9]
  Activity: Non-Toxic
HCT-116 [10]
  Activity: Active
HeLa [11]
  Activity: 5%
[12]
  inhibition: inactive
NCI-H1299 [13]
  Activity: Active
NCI-H1299 [14]
  Activity: Active
